Test results taken from patent US12565501B2, “Muscarinic acetylcholine M1 receptor antagonists” (Contineum Therapeutics, Inc., priority 2019, dated 2026).

Molecular target: T1, human M1 receptor (Homo sapiens, UniProt P11229)
T1 sequence (P11229 1-460): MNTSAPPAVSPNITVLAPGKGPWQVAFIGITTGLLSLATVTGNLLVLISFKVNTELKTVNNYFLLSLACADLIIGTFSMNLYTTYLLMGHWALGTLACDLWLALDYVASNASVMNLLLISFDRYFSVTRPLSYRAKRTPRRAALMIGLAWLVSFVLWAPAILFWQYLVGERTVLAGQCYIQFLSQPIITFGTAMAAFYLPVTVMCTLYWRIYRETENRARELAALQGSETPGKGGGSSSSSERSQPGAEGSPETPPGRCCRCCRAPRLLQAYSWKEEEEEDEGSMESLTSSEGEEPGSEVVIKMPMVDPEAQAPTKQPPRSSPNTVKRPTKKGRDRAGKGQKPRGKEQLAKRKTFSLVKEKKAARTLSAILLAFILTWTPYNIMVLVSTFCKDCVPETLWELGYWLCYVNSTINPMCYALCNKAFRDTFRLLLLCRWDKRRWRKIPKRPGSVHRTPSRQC
Experiment: In vitro functional assay of muscarinic acetylcholine receptor activity (aequorin calcium flux, reversal of EC80 acetylcholine response)
Format: cell-based
Details: CHO-K1 cells stably expressing human M1 receptor with aequorin; acetylcholine at EC80; calcium flux (luminescence); read-out: M1 IC50
How it was run: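 CHO-K1 cells expressing human M1 and aequorin, loaded with 5 μM coelenterazine for 4 h, preincubated with compound 30 min at room temperature, then challenged with EC80 acetylcholine.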

Compound | IC50 [nM]
N#Cc1ccc(N2C3CCC2CN(C(=O)CNC2(c4cccc(C#N)c4)CC2)C3)nc1 [Example 62, 6-(3-((1-(3-cyanophenyl)cyclopropyl)glycyl)-3,8-diazabicyclo[3.2.1]octan-8-yl)nicotinonitrile] | 100 to 1000
N#Cc1ccc(N2C3CCC2CN(C(=O)CNC2(c4ccccn4)CC2)C3)nc1 [Example 63, 6-(3-((1-(pyridin-2-yl)cyclopropyl)glycyl)-3,8-diazabicyclo[3.2.1]octan-8-yl)nicotinonitrile] | 1000 to 10000
N#Cc1ccc(N2C3CCC2CN(C(=O)CNC2(c4cccnn4)CC2)C3)nc1 [Example 64, 6-(3-((1-(pyridazin-3-yl)cyclopropyl)glycyl)-3,8-diazabicyclo[3.2.1]octan-8-yl)nicotinonitrile] | 100 to 1000
COc1ccccc1[C@H](C)NCC(=O)N1CC2CCC(C1)N2c1ccc(C#N)cn1 [Example 65, 6-(3-(((S)-1-(2-methoxyphenyl)ethyl)glycyl)-3,8-diazabicyclo[3.2.1]octan-8-yl)nicotinonitrile] | < 10
COc1cc([C@H](C)NCC(=O)N2CC3CCC(C2)N3c2ccc(C#N)cn2)ccc1F [Example 66, 6-(3-(((S)-1-(4-fluoro-3-methoxyphenyl)ethyl)glycyl)-3,8-diazabicyclo[3.2.1]octan-8-yl)nicotinonitrile] | < 10
COc1ccc(F)c([C@H](C)NCC(=O)N2CC3CCC(C2)N3c2ccc(C#N)cn2)c1 [Example 67, 6-(3-(((S)-1-(2-fluoro-5-methoxyphenyl)ethyl)glycyl)-3,8-diazabicyclo[3.2.1]octan-8-yl)nicotinonitrile] | < 10
C[C@H](NCC(=O)N1C[C@H]2CC[C@@H](C1)N2c1ccc(C#N)cn1)c1cccc2c1OC(F)(F)O2 [Example 68, 6-(3-(((S)-1-(2,2-difluorobcnzo[d][1,3]dioxol-4-yl)ethyl)glycyl)-3,8-diazabicyclo[3.2.1]octan-8-yl)nicotinonitrile] | < 10
N#Cc1ccc(N2C3CCC2CN(C(=O)CNC2(c4ccc(F)cn4)CC2)C3)nc1 [Example 69, 6-(3-((1-(5-fluoropyridin-2-yl)cyclopropyl)glycyl)-3,8-diazabicyclo[3.2.1]octan-8-yl)nicotinonitrile] | 100 to 1000
N#Cc1ccc(N2C3CCC2CN(C(=O)CNC2(c4cccc(F)c4F)CC2)C3)nc1 [Example 70, 6-(3-((1-(2,3-difluorophenyl)cyclopropyl)glycyl)-3,8-diazabicyclo[3.2.1]octan-8-yl)nicotinonitrile] | 100 to 1000
N#Cc1ccc(N2C3CCC2CN(C(=O)CNC2(c4cc(F)ccc4F)CC2)C3)nc1 [Example 71, 6-(3-((1-(2,5-difluorophenyl)cyclopropyl)glycyl)-3,8-diazabicyclo[3.2.1]octan-8-yl)nicotinonitrile] | 100 to 1000
N#Cc1ccc(N2C3CCC2CN(C(=O)CNC2(c4c(F)cccc4F)CC2)C3)nc1 [Example 72, 6-(3-((1-(2,6-difluorophenyl)cyclopropyl)glycyl)-3,8-diazabicyclo[3.2.1]octan-8-yl)nicotinonitrile] | 100 to 1000
COc1cc(C2(NCC(=O)N3CC4CCC(C3)N4c3ccc(C#N)cn3)CC2)ccn1 [Example 73, 6-(3-((1-(2-methoxypyridin-4-yl)cyclopropyl)glycyl)-3,8-diazabicyclo[3.2.1]octan-8-yl)nicotinonitrile] | 10 to 100
COc1cc(C2(NCC(=O)N3CC4CCC(C3)N4c3ccc(C#N)cn3)CC2)c(F)cn1 [Example 74, 6-(3-((1-(5-fluoro-2-methoxypyridin-4-yl)cyclopropyl)glycyl)-3,8-diazabicyclo[3.2.1]octan-8-yl)nicotinonitrile] | 10 to 100
COc1ccc(F)cc1C1(NCC(=O)N2CC3CCC(C2)N3c2ccc(C#N)cn2)CC1 [Example 76, 6-(3-((1-(5-fluoro-2-methoxyphenyl)cyclopropyl)glycyl)-3,8-diazabicyclo[3.2.1]octan-8-yl)nicotinonitrile] | < 10
COc1c(F)cccc1C1(NCC(=O)N2CC3CCC(C2)N3c2ccc(C#N)cn2)CC1 [Example 77, 6-(3-((1-(3-fluoro-2-methoxyphenyl)cyclopropyl)glycyl)-3,8-diazabicyclo[3.2.1]octan-8-yl)nicotinonitrile] | < 10
N#Cc1ccc(N2C3COCC2CN(C(=O)CNC2(c4ccc(F)cc4F)CC2)C3)nc1 [Example 78, 6-(7-((1-(2,4-difluorophenyl)cyclopropyl)glycyl)-3-oxa-7,9-diazabicyclo[3.3.1]nonan-9-yl)nicotinonitrile] | 100 to 1000
N#Cc1ccc(N2C3CC2CN(C(=O)CNC2(c4ccc(F)cc4F)CC2)C3)nc1 [Example 79, 6-(3-((1-(2,4-difluorophenyl)cyclopropyl)glycyl)-3,6-diazabicyclo[3.1.1]heptan-6-yl)nicotinonitrile] | 1000 to 10000

Compound | IC50 [nM]
N#Cc1ccc(N2C[C@H]3C[C@@H]2CN3C(=O)CNC2(c3ccc(F)cc3F)CC2)nc1 [Example 80, 6-((1R,4R)-5-((1-(2,4-difluorophenyl)cyclopropyl)glycyl)-2,5-diazabicyclo[2.2.1]heptan-2-yl)nicotinonitrile] | > 1000
N#Cc1ccc(N2C[C@H]3CC[C@@H]2CN3C(=O)CNC2(c3ccc(F)cc3F)CC2)nc1 [Example 81, 6-((1R,4R)-5-((1-(2,4-difluorophenyl)cyclopropyl)glycyl)-2,5-diazabicyclo[2.2.2]octan-2-yl)nicotinonitrile] | > 1000
N#Cc1ccc(N2C[C@@H]3C[C@H]2CN3C(=O)CNC2(c3ccc(F)cc3F)CC2)nc1 [Example 82, 6-((1S,4S)-5-((1-(2,4-difluorophenyl)cyclopropyl)glycyl)-2,5-diazabicyclo[2.2.1]heptan-2-yl)nicotinonitrile] | > 1000
N#Cc1ccc(N2C[C@@H]3CC[C@H]2CN3C(=O)CNC2(c3ccc(F)cc3F)CC2)nc1 [Example 83, 6-((1S,4S)-5-((1-(2,4-difluorophenyl)cyclopropyl)glycyl)-2,5-diazabicyclo[2.2.2]octan-2-yl)nicotinonitrile] | 1000 to 10000
N#Cc1cc(N2C3CCC2CN(C(=O)CNC2(c4ccc(F)cc4F)CC2)C3)ccn1 [Example 84, 4-(3-((1-(2,4-difluorophenyl)cyclopropyl)glycyl)-3,8-diazabicyclo[3.2.1]octan-8-yl)picolinonitrile] | 100 to 1000
N#Cc1ccc(N2C3CCC2CN(C(=O)CNC2(c4ccc(F)cc4F)CC2)C3)cc1 [Example 85, 4-(3-((1-(2,4-difluorophenyl)cyclopropyl)glycyl)-3,8-diazabicyclo[3.2.1]octan-8-yl)benzonitrile] | 10 to 100
Cc1ccc(N2C3CCC2CN(C(=O)CNC2(c4ccc(F)cc4F)CC2)C3)nn1 [Example 86, 2-((1-(2,4-difluorophenyl)cyclopropyl)amino)-1-(8-(6-methylpyridazin-3-yl)-3,8-diazabicyclo[3.2.1]octan-3-yl)ethan-1-one] | 1000 to 10000
COc1cccc([C@H](C)NCC(=O)N2CC3CCC(C2)N3c2ccc(C#N)cn2)c1 [Example 92, 6-(3-(((S)-1-(3-methoxyphenyl)ethyl)glycyl)-3,8-diazabicyclo[3.2.1]octan-8-yl)nicotinonitrile] | < 10
COc1cc([C@H](C)NCC(=O)N2C[C@H]3CC[C@@H](C2)N3c2ccc(C#N)cn2)ccn1 [Example 93, 6-(3-(((S)-1-(2-methoxypyridin-4-yl)ethyl)glycyl)-3,8-diazabicyclo[3.2.1]octan-8-yl)nicotinonitrile] | < 10
N#Cc1ccc(N2C3CCC2CN(C(=O)CNC2(c4ccccc4)CC2)C3)nc1 [Example 94, 6-(3-((1-phenylcyclopropyl)glycyl)-3,8-diazabicyclo[3.2.1]octan-8-yl)nicotinonitrile] | 1000 to 10000
N#Cc1ccc(N2C3CCC2CN(C(=O)CNC2(c4cccc(F)c4)CC2)C3)nc1 [Example 95, 6-(3-((1-(3-fluorophenyl)cyclopropyl)glycyl)-3,8-diazabicyclo[3.2.1]octan-8-yl)nicotinonitrile] | 10 to 100
N#Cc1ccc(N2C3CCC2CN(C(=O)CNC2(c4ccc(F)cc4)CC2)C3)nc1 [Example 96, 6-(3-((1-(4-fluorophenyl)cyclopropyl)glycyl)-3,8-diaabicyclo[3.2.1]octan-8-yl)nicotinonitrile] | 100 to 1000
COc1ccccc1C1(NCC(=O)N2CC3CCC(C2)N3c2ccc(C#N)cn2)CC1 [Example 97, 6-(3-((1-(2-methoxyphenyl)cyclopropyl)glycyl)-3,8-diazabicyclo[3.2.1]octan-8-yl)nicotinonitrile] | < 10
COc1cccc(C2(NCC(=O)N3CC4CCC(C3)N4c3ccc(C#N)cn3)CC2)c1 [Example 98] | < 10
N#Cc1ccc(C2(NCC(=O)N3CC4CCC(C3)N4c3ccc(C#N)cn3)CC2)cc1 [Example 100, 6-(3-((1-(4-cyanoplKml)cyclopropyl)glycyl)-3,8-diazabicyclo[3.2.1]oclaii-8-yl)mcotiiiomtrile] | > 1000
N#Cc1ccc(N2C3CCC2CN(C(=O)CNC2(c4ccccc4Br)CC2)C3)nc1 [Example 101, 6-(3-((1-(2-bromophenyl)cyclopropyl)glycyl)-3,8-diazabicyclo[3.2.1]octan-8-yl)nicotinonitrile] | 10 to 100
N#Cc1ccc(N2C3CCC2CN(C(=O)CNC2(c4ccncc4)CC2)C3)nc1 [Example 102, 6-(3-((1-(pyridin-4-yl)cyclopropyl)glycyl)-3,8-diazabicyclo[3.2.1]octan-8-yl)nicotinonitrile] | 100 to 1000
